Measured values: paper PMC5641551, “Chemical Proteomics for Target Discovery of Head-to-Tail Cyclized Mini-Proteins” (Frontiers in Chemistry, 2017)
No end group written: not given here.

Legend:
[1] = system: 14-3-3 proteins / 25 kDa protein in Jurkat cell lysates; test: photo-affinity pull down, Jurkat cell lysate, with competition; format: binding, human; details: competitor at 20-, 60- and 100-fold molar excess of biotinylated probe [T20K,W23Bpa]kB1, silver-stained gel
Experimental: Splenocytes or Jurkat cells were lysed with 25 mM Tris-HCl pH 7.4, 40 mM KCl, 2.5 mM MgSO4 2.5 mM CaCl2, 2% (v/v) glycerol, 1 mM EDTA under repeated freeze-thaw cycles and 10 min sonification. All experiments were performed in buffer with 1x complete protease inhibitor cocktail (Hoffman-La Roche, Basel, Switzerland). Cell membranes and debris were pelleted for 30 min at 16,000 × g and the supernatant corresponds to the “soluble cell lysate.” Protein concentration was determined using a bicinchoninic acid assay kit (Thermo Scientific) and DTT (1 mM) was added to keep redox potential constant during binding experiments. Photo-affinity pull down samples were submitted to denaturing sodium dodecyl sulfate polyacrylamide gel electrophoresis (PAGE). For immunoblotting according to earlier published protocols (Gruber et al., [2007]; Bergmayr et al., [2013]) proteins were semi-dry transferred onto a nitrocellulose membrane 0.45 μM (Amersham Protran, GE Healthcare, Austria) using a Fast Semi-dry blotter (Bio-Rad) at 0.25 mA per gel for 1 h. […] Chemo-luminescence signals were detected on an imaging system FluorChem HD2 (Alpha Innotech, CA, United States). […] Pixel quantification was carried out using ImageJ v1.47 (National Institute for Health). […]

[2] = system: 14-3-3 proteins / 25 kDa protein band in murine splenocyte lysates; test: photo-affinity pull down, splenocyte lysate, with competitors; format: binding, mouse; details: competitors at 100-fold molar excess versus bait [T20K,W23Bpa]kB1, in-gel digestion and proteomics
Experimental: Splenocytes or Jurkat cells were lysed with 25 mM Tris-HCl pH 7.4, 40 mM KCl, 2.5 mM MgSO4 2.5 mM CaCl2, 2% (v/v) glycerol, 1 mM EDTA under repeated freeze-thaw cycles and 10 min sonification. All experiments were performed in buffer with 1x complete protease inhibitor cocktail (Hoffman-La Roche, Basel, Switzerland). Cell membranes and debris were pelleted for 30 min at 16,000 × g and the supernatant corresponds to the “soluble cell lysate.” Protein concentration was determined using a bicinchoninic acid assay kit (Thermo Scientific) and DTT (1 mM) was added to keep redox potential constant during binding experiments. Photo-affinity pull down samples were submitted to denaturing sodium dodecyl sulfate polyacrylamide gel electrophoresis (PAGE). For immunoblotting according to earlier published protocols (Gruber et al., [2007]; Bergmayr et al., [2013]) proteins were semi-dry transferred onto a nitrocellulose membrane 0.45 μM (Amersham Protran, GE Healthcare, Austria) using a Fast Semi-dry blotter (Bio-Rad) at 0.25 mA per gel for 1 h. Primary rabbit anti-GFP antibody (1:5,000) was from Invitrogen (A6455), rabbit anti-GST antibody (1:2,500) from Abcam (ab9085), and mouse anti-human calcineurin subunit A antibody (1:2,000) clone BE2.1 from eBioscience. Secondary ECL anti-mouse (NA931V) or ECL anti-rabbit (NA934VS) IgG antibodies (1:10,000) were conjugated with horse radish peroxidase (GE Healthcare). Chemo-luminescence signals were detected on an imaging system FluorChem HD2 (Alpha Innotech, CA, United States). For silver staining protein gels were treated immediately after electrophoresis with fixing solution EtOH/ddH2O/acetic acid 50/40/10% (v/v/v) for 20 min. Gels had to be washed acid free, first with 50% (v/v) EtOH for 10 min and with ddH2O for 2 h. Gels were exposed to sensitization buffer 0.025% Na2S2O3 in ddH2O for 3 min, followed by 2 min wash with ddH2O. Gels were silver loaded using a 0.15% AgNO3 solution for 45 min in the dark. The protein bands were stained in development buffer formaldehyde/Na2CO3 0.04/2% (v/w) under rigorous shaking. The reaction was quenched with 5% (v/v) acetic acid solution and the gels were stored until further processing in the stopping buffer at 4°C. Pixel quantification was carried out using ImageJ v1.47 (National Institute for Health).
Biotin-LC-LC-labeled (ThermoFisher) peptides (1–5 nmoles) with or without (non-biotinylated) competitor (20–100-fold molar excess) were incubated with Jurkat cell or murine splenocyte cell lysates (150–500 μg proteins) for 2 h at 4°C in the presence of protease inhibitors. UV-activation of photo-crosslinking moiety benzophenone was induced by irradiation at 360 nm on ice for 15 min (Stratalinker, Stratagene, CA, United States). […]

Sequence: CGETCVGGTCNTPGCKCSWPVCTRNGLPV (also: bicyclic or more (positions not given here)) [[T20K]kB1, synthetic cyclotide drug candidate, Thr20 to Lys mutant of kalata B1]
- effect of competitor on 25 kDa protein band intensity [1]: revealed an effect on the band intensity of a 25 kDa protein
- competition effect for 14-3-3 proteins (order) [2]: competition effect in the order [T20K]kB1 < [T20K,W23Bpa]kB1 < R18
